# In publication PMC5934995 (Biochemistry, 2017):
# Where a chain is given by its changes, count along the chain named. Read-outs that look alike come from different tables or passages of the source. Marks after values point to notes of the source that are not given here.
# B1: S. aureus GS (SA) (Staphylococcus aureus subsp. aureus N315) (protein)
# chain: MPKRTFTKEDIRKFAEEENVRYLRLQFTDILGTIKNVEVPVSQLEKVLDNEMMFDGSSIEGFVRIEESDMYLHPDLDTWVIFPWTAGQGKVARLICDVYKTDGTPFEGDPRANLKRVLKEMEDLGFTDFNLGPEPEFFLFKLDEKGEPTLELNDDGGYFDLAPTDLGENCRRDIVLELEDMGFDIEASHHEVAPGQHEIDFKYADAVTACDNIQTFKLVVKTIARKHNLHATFMPKPLFGVNGSGMHFNVSLFKGKENAFFDPNTEMGLTETAYQFTAGVLKNARGFTAVCNPLVNSYKRLVPGYEAPCYIAWSGKNRSPLIRVPSSRGLSTRIEVRSVDPAANPYMALAAILEAGLDGIKNKLKVPEPVNQNIYEMNREEREAVGIQDLPSTLYTALKAMRENEVIKKALGNHIYNQFINSKSIEWDYYRTQVSEWERDQYMKQY
# B2: recombinant S. aureus GS (Staphylococcus aureus) (protein)
# chain: B1 chain with E9D
# B3: recombinant E. coli GS (Escherichia coli K-12) (protein)
# chain: MSAEHVLTMLNEHEVKFVDLRFTDTKGKEQHVTIPAHQVNAEFFEEGKMFDGSSIGGWKGINESDMVLMPDASTAVIDPFFADSTLIIRCDILEPGTLQGYDRDPRSIAKRAEDYLRSTGIADTVLFGPEPEFFLFDDIRFGSSISGSHVAIDDIEGAWNSSTQYEGGNKGHRPAVKGGYFPVPPVDSAQDIRSEMCLVMEQMGLVVEAHHHEVATAGQNEVATRFNTMTKKADEIQIYKYVVHNVAHRFGKTATFMPKPMFGDNGSGMHCHMSLSKNGVNLFAGDKYAGLSEQALYYIGGVIKHAKAINALANPTTNSYKRLVPGYEAPVMLAYSARNRSASIRIPVVSSPKARRIEVRFPDPAANPYLCFAALLMAGLDGIKNKIHPGEAMDKNLYDLPPEEAKEIPQVAGSLEEALNELDLDREFLKAGGVFTDEAIDAYIALRREEDDRVRMTPHPVEFELYYSV
# B4: E. coli GS (EC) (Escherichia coli K-12) (protein)
# chain: SAEHVLTMLNEHEVKFVDLRFTDTKGKEQHVTIPAHQVNAEFFEEGKMFDGSSIGGWKGINESDMVLMPDASTAVIDPFFADSTLIIRCDILEPGTLQGYDRDPRSIAKRAEDYLRSTGIADTVLFGPEPEFFLFDDIRFGSSISGSHVAIDDIEGAWNSSTQYEGGNKGHRPAVKGGYFPVPPVDSAQDIRSEMCLVMEQMGLVVEAHHHEVATAGQNEVATRFNTMTKKADEIQIYKYVVHNVAHRFGKTATFMPKPMFGDNGSGMHCHMSLSKNGVNLFAGDKYAGLSEQALYYIGGVIKHAKAINALANPTTNSYKRLVPGYEAPVMLAYSARNRSASIRIPVVSSPKARRIEVRFPDPAANPYLCFAALLMAGLDGIKNKIHPGEAMDKNLYDLPPEEAKEIPQVAGSLEEALNELDLDREFLKAGGVFTDEAIDAYIALRREEDDRVRMTPHPVEFELYYSV
# Tests used:
# E. coli ATCC 25922 = assay: Broth microdilution MIC in chemically defined minimal medium; type: cell-based; details: for phenotype induced by treatment (L-Gln dependence of growth): E. coli in minimal medium with or without L-Gln
# E. coli ATCC 29522 = assay: Growth curves; type: cell-based
# [1] = 23 °C, pH 7.2 phosphate buffer; isomerization to TδL-Thr; cited from earlier work
# [2] = target: recombinant N-His6-tagged GS from E. coli (Escherichia coli, UniProt P0A9C5); assay: biochemical; type: biochemical; details: for kinact: pH 7.4
# [3] = target: recombinant N-His6-tagged GS from S. aureus (Staphylococcus aureus, UniProt P0A040); assay: biochemical; type: biochemical; details: for kinact: pH 7.4
# Chain of recombinant N-His6-tagged GS from S. aureus (P0A040 whole entry): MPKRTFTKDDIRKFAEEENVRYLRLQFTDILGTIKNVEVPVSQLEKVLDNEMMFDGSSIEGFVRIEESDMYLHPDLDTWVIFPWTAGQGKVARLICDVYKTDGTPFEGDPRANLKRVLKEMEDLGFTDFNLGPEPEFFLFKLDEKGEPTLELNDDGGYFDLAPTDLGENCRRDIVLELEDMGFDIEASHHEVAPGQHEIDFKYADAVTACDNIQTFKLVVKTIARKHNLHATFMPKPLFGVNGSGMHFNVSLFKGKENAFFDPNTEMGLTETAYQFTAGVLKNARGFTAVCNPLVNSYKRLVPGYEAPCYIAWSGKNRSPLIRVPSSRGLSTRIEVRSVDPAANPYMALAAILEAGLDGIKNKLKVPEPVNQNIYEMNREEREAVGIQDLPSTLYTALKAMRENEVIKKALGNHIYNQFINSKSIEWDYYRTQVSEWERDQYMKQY
# [4] = target: recombinant N-His6-tagged GS from Homo sapiens (Homo sapiens, UniProt P15104); assay: biochemical; type: biochemical; details: for kinact: pH 7.4
# Chain of recombinant N-His6-tagged GS from Homo sapiens (P15104 whole entry): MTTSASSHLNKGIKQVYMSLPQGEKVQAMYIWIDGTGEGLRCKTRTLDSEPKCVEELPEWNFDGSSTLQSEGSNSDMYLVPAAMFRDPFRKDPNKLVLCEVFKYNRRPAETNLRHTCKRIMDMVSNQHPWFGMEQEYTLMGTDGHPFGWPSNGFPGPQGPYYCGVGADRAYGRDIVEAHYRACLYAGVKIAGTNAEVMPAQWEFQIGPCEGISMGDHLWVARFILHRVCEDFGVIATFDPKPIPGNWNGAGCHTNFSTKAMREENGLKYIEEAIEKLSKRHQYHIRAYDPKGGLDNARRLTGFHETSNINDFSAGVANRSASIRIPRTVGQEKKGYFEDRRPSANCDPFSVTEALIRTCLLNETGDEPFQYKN
# [5] = tested on: unadenylylated E. coli GS; details: read-out: KI (literature); cited from earlier work
# E. coli GS [6] = target: T1, E. coli GS (Escherichia coli, UniProt P0A9C5); details: cited from earlier work
# M. tuberculosis = details: in vivo, cited from earlier work
# E. coli GS [7] = target: T1, E. coli GS; details: cited from earlier work; remark: listed apart in the source
# human GS = details: cited from earlier work
# E. coli GS [8] = target: T1, E. coli GS; type: biochemical; details: apparent, saturating ATP (10 mM) and NH3 (10 mM)
# recombinant S. aureus GS = recombinant S. aureus GS (Staphylococcus aureus, UniProt P0A040); type: biochemical; details: apparent, saturating ATP (10 mM) and NH3 (10 mM)
# Chain of recombinant S. aureus GS (P0A040 whole entry): as the sequence (P0A040 whole entry) above
# recombinant human GS = recombinant human GS (Homo sapiens, UniProt P15104); type: biochemical; details: apparent, saturating ATP (10 mM) and NH3 (10 mM)
# Chain of recombinant human GS (P15104 whole entry): as the sequence (P15104 whole entry) above
# [9] = tested on: GS isolated from Leishmania donovani; details: read-out: apparent Km for L-Glu (literature); cited from earlier work
# GS = details: relative to Glufos; cited from earlier work
# [10] = substrate: N[C@@H](CCC(=O)O)C(=O)O; assay: purified protein, by the assay type; type: biochemical; details: pH 7.4
# [11] = substrate: Nc1ncnc2c1ncn2[C@@H]1O[C@H](COP(=O)(O)OP(=O)(O)OP(=O)(O)O)[C@@H](O)[C@H]1O; assay: purified protein, by the assay type; details: other: apparent; saturating L-Glu (50 mM) and NH3 (10 mM); pH 7.4; 37.0 °C
# [12] = end point, minimal medium, no amino acid supplement, 37 °C, 18–24 h
# [13] = minimal medium supplemented with 5 mM L-Glu
# [14] = apparent, Kitz–Wilson fit, 37 °C
# [15] = read-out: apparent Km for ATP (literature)
molecule,measurement,setting,value
tabtoxin [TβL-Thr],phenotype induced by treatment (L-Gln dependence of growth),E. coli ATCC 25922,glutamine auxotrophy
same,MIC90,E. coli ATCC 25922; [12],0.0005 mM
same,MIC90,E. coli ATCC 25922; [13],0.001 mM
same,growth curve with L-Gln supplementation,"E. coli ATCC 29522; 2 μM, L-Gln supplementation 2.5 mM",matched the control
same,growth with L-Gln supplementation,"E. coli ATCC 29522; 2 μM, medium supplemented with 0.1 mM L-Gln",recovered to near control levels
same,time after which growth started to recover,"E. coli ATCC 29522; 2 μM, minimal medium",26 h
same,time for which growth was suppressed,E. coli ATCC 29522; 100 μM,> 50 h
same,isomerization half-life,[1],37 h
"CP(=O)(O)CCC(N)C(=O)O (centres unmarked) [Glufos, glufosinate]",kinact/KI,[2],11700 M⁻¹ s⁻¹
same,difference in inhibitor efficiency (kinact/KI) for E. coli and human GS,[2]; E. coli GS versus human GS,120 fold
same,kinact,[2],0.7 min⁻¹
same,kinact/KI,[3],500 M⁻¹ s⁻¹
same,kinact,[3],0.00667 s⁻¹
same,kinact/KI,[4],100 M⁻¹ s⁻¹
same,kinact,[4],0.9 min⁻¹
same,Ki,[5],1000 nM
"C[P@](=O)(CC[C@H](N)C(=O)O)OP(=O)(O)O [Glufos-Pi, phospho-glufosinate]",number of GS active sites occupied (of 12),E. coli GS [6],11
"NC[C@H]1O[C@H](O[C@H]2[C@H](O)[C@@H](O[C@H]3O[C@H](CO)[C@@H](O)[C@H](N)[C@H]3O)[C@H](N)C[C@@H]2N)[C@H](O)[C@@H](O)[C@@H]1O [kanamycin, reference compound]",MIC,"E. coli ATCC 25922; control antibiotic on every plate, minimal medium",0.008 mM
"N[C@@H](CC[C@]1(O)CNC1=O)C(=O)O [TβL, Tabtoxinine-β-lactam]",kinact/KI (inhibitor efficiency),[2],180 ± 70 min^−1μM^−1
same,difference in inhibitor efficiency (kinact/KI) for E. coli and human GS,[2]; E. coli GS versus human GS,90 fold
same,kinact/KI,[2]; apparent inhibitor efficiency,180 ± 70 min^−1μM^−1 ×10^3
same,kinact,[2]; [14],0.3 ± 0.1 min⁻¹
same,recovery of GS activity after dialysis of inhibition complex,[2]; several days of dialysis at 4 °C and 37 °C,could not be recovered
same,kinact/KI (inhibitor efficiency),[3],8 ± 3 min^−1μM^−1
same,kinact/KI,[3]; apparent inhibitor efficiency,8 ± 3 min^−1μM^−1 ×10^3
same,kinact,[3]; [14],0.0067 ± 0.0017 s⁻¹
same,kinact/KI (inhibitor efficiency),[4],2 ± 1 min^−1μM^−1
same,kinact/KI,[4]; apparent inhibitor efficiency,2 ± 1 min^−1μM^−1 ×10^3
same,kinact,[4]; [14],0.3 ± 0.1 min⁻¹
"CS(=N)(=O)CC[C@H](N)C(=O)O (some centres unmarked) [MetSox, Methionine sulfoximine]",difference in inhibitor efficiency (kinact/KI) for E. coli and human GS,[2],250 fold
same,kinact/KI,[2],100 ± 40 min^−1μM^−1 ×10^3
same,kinact,[2],0.4 ± 0.1 min⁻¹
same,kinact/KI,[3]; apparent inhibitor efficiency,28 ± 9 min^−1μM^−1 ×10^3
same,kinact/KI,[4]; apparent inhibitor efficiency,0.4 ± 0.3 min^−1μM^−1 ×10^3
same,kinact,[4]; [14],0.4 ± 0.2 min⁻¹
same,Ki,[5],2000 nM
same,tolerability,M. tuberculosis; guinea pig,well tolerated
same,efficacy in guinea pig lung infection model,M. tuberculosis,effective and synergistic with isoniazid
"Nc1ncnc2c1ncn2[C@@H]1O[C@H](COP(=O)(O)OP(=O)(O)OP(=O)(O)O)[C@@H](O)[C@H]1O [ATP, adenosine triphosphate]",Km,E. coli GS [7]; [15],0.1 to 0.7 mM
same,Km,human GS; [15],1.8 to 2.8 mM
N[C@@H](CCC(=O)O)C(=O)O [L-Glu],kcat (L-Glu),E. coli GS [8],131.7 ± 5 s⁻¹
same,Km,E. coli GS [8]; read-out: Km (L-Glu),7.2 ± 0.8 mM
same,kcat (L-Glu),recombinant S. aureus GS,23.33 ± 1.67 s⁻¹
same,Km,recombinant S. aureus GS; read-out: Km (L-Glu),52 ± 7 mM
same,kcat (L-Glu),recombinant human GS,85 ± 5 s⁻¹
same,Km,recombinant human GS; read-out: Km (L-Glu),37 ± 5 mM
same,Km,E. coli GS [7]; read-out: apparent Km for L-Glu (literature),0.8 to 6.6 mM
same,Km,"human GS; read-out: L-Glu Km (literature), recombinant human enzyme expressed in E. coli, colorimetric assay",3.5 ± 0.7 mM
same,Km,[9],26.3 ± 0.4 mM
"C[C@H](N)C(=O)N[C@@H](C)C(=O)NC(CCP(C)(=O)O)C(=O)O (stereo partly drawn) [AAG, L-Ala-L-Ala-Glufos]",phenotype induced by treatment (L-Gln dependence of growth),E. coli ATCC 25922,glutamine auxotrophy
same,MIC90,E. coli ATCC 25922; [12],0.0005 mM
same,MIC90,E. coli ATCC 25922; [13],0.001 mM
same,time for which growth was fully suppressed,E. coli ATCC 29522; 2 μM,> 66 h
CP(=O)(O)C(O)CC(N)C(=O)O (centres unmarked) [γ-hydroxylated variant of Glufos],increase of the rate of GS activation,GS,50%
"CS(=O)(CCC(N)C(=O)O)=NP(=O)(O)O (centres unmarked) [MetSox-Pi, phospho-methionine sulfoximine]",active site occupancy,E. coli GS [6],~ 80%
"C[C@H](NC(=O)[C@H](C)NC(=O)[C@@H](N)CCP(C)(=O)[O-])C(=O)O.[Na+] [bialaphos sodium salt, Glufos-L-Ala-L-Ala tripeptide, reference compound]",phenotype induced by treatment (L-Gln dependence of growth),E. coli ATCC 25922,confirmed
B1,Km,[10],52 ± 7 mM
same,kcat,[10],23.3 ± 1.67 s⁻¹
same,kcat/Km,[10],450 ± 66.7 M⁻¹ s⁻¹
B2,Km,[11],1.8 ± 0.1 mM
same,kcat,[11],12 s⁻¹
same,kcat/Km,[11],6670 M⁻¹ s⁻¹
B3,Km,[11],0.7 ± 0.1 ^a mM
same,kcat,[11],122 s⁻¹
same,kcat/Km,[11],173000 M⁻¹ s⁻¹
B4,Km,[10],7.2 ± 0.8 mM
same,kcat,[10],132 ± 5 s⁻¹
same,kcat/Km,[10],18300 ± 1670 M⁻¹ s⁻¹
